ChEMBL document CHEMBL3621039, “Synthesis of alkylsulfonyl and substituted benzenesulfonyl curcumin mimics as dual antagonist of L-type Ca(2+) channel and endothelin A/B2 receptor” (Bioorg Med Chem, 2015)

Experiments:
Oryctolagus cuniculus [1] = organism: Oryctolagus cuniculus; assay: Antagonist activity against L-type calcium channel in New Zealand white rabbit basilar artery assessed as vasodilation by measuring effect on 50 mM K+-stimulated depolarization-induced constriction at 10 uM; format: tissue-based; design: scale not given: the % may be the effect or the level left
Oryctolagus cuniculus [2] = organism: Oryctolagus cuniculus; assay: Antagonist activity against endothelin A/B2 receptor in New Zealand white rabbit basilar artery assessed as vasodilation by measuring effect on endothelin-1-induced constriction at 10 uM; format: tissue-based; design: scale not given: the % may be the effect or the level left
[3] = Antagonist activity against endothelin A/B2 receptor in New Zealand white rabbit basilar artery assessed as vasodilation by measuring effect on endothelin-1-induced constriction; format: tissue-based, Oryctolagus cuniculus
[4] = Antagonist activity against L-type calcium channel in New Zealand white rabbit basilar artery assessed as vasodilation by measuring effect on 50 mM K+-stimulated depolarization-induced constriction; format: tissue-based, Oryctolagus cuniculus

Row | Structure (SMILES) | Activity (Oryctolagus cuniculus [2]) [%] | EC50 [3] [µM] | EC50 [4] [µM] | Activity (Oryctolagus cuniculus [1]) [%]
1 | COc1cc(/C=C/C(=O)c2cccc(NS(=O)(=O)C(C)C)c2)ccc1O | 31.2 |  |  | 20.5
2 | COc1cc(/C=C/C(=O)c2cccc(NS(=O)(=O)c3ccc(C(F)(F)F)cc3)c2)ccc1O | 46.1 |  |  | 65.8
3 | COc1cc(/C=C/C(=O)c2cccc(NS(=O)(=O)c3ccc(OC(F)(F)F)cc3)c2)ccc1O | 81.4 | 6.1 |  | 76.7
4 | CCCS(=O)(=O)Nc1cccc(C(=O)/C=C/c2ccc(O)c(OC)c2)c1 | 30.8 |  |  | 42.3
5 | COc1ccc(S(=O)(=O)Nc2cccc(C(=O)/C=C/c3ccc(O)c(OC)c3)c2)cc1 | 56.8 |  |  | 26.4
6 | CCS(=O)(=O)Nc1cccc(C(=O)/C=C/c2ccc(O)c(OC)c2)c1 | 19.7 |  |  | 55.3
7 | COc1cc(/C=C/C(=O)c2cccc(NS(=O)(=O)c3ccc([N+](=O)[O-])cc3)c2)ccc1O | 98.9 | 3.9 |  | 70.7
8 | COc1cc(/C=C/C(=O)CC(=O)/C=C/c2ccc(O)c(OC)c2)ccc1O [CURCUMIN] | 8.5 | 48.5 | 7.48 | 58.4
9 | COc1cc(/C=C/C(=O)c2cccc(NS(=O)(=O)c3ccc(C(C)=O)cc3)c2)ccc1O | 68.7 |  |  | 67.9
10 | COc1cc(/C=C/C(=O)c2cccc(NS(C)(=O)=O)c2)ccc1O | 22.3 |  |  | 4.2
11 | COc1cc(/C=C/C(=O)c2cccc(NS(=O)(=O)C(F)(F)F)c2)ccc1O | 34.6 |  |  | 10.7

Second part, led by results:

Row | Activity (Oryctolagus cuniculus [2]) [%] | EC50 [3] [µM] | EC50 [4] [µM] | Structure (SMILES) | Activity (Oryctolagus cuniculus [1]) [%]
12 | 36.5 |  |  | COc1cc(/C=C/C(=O)c2cccc(NS(=O)(=O)c3cccc(C(F)(F)F)c3)c2)ccc1O | 52.3
13 | 75.1 | 6.4 |  | COc1cc(/C=C/C(=O)c2cccc(NS(=O)(=O)c3ccc(F)cc3)c2)ccc1O | 71.8
14 | 41.8 |  |  | COc1cc(/C=C/C(=O)c2cccc(NS(=O)(=O)c3ccc(Cl)c(Cl)c3)c2)ccc1O | 30.2
15 | 83.4 | 8.8 |  | COc1cc(/C=C/C(=O)c2cccc(NS(=O)(=O)c3ccc(Cl)cc3Cl)c2)ccc1O | 4.2
16 | 40.2 |  |  | COc1cc(/C=C/C(=O)c2cccc(NS(=O)(=O)c3ccccc3)c2)ccc1O | 50.4
17 | 39.1 |  |  | COc1cc(/C=C/C(=O)c2cccc(NS(=O)(=O)c3cccs3)c2)ccc1O | 32.4
18 | 78.3 | 5.9 | 5.58 | COc1cc(/C=C/C(=O)c2cccc(NS(=O)(=O)c3ccc(Cl)cc3)c2)ccc1O | 93.4
19 | 30.4 |  |  | COc1cc(/C=C/C(=O)c2cccc(NS(=O)(=O)c3cc(Cl)ccc3Cl)c2)ccc1O | 53.4
20 | 99.6 | 2.7 | 3.67 | COc1cc(/C=C/C(=O)c2cccc(NS(=O)(=O)c3ccc(C)cc3)c2)ccc1O | 98.7
21 | 99.8 | 1.8 | 2.78 | COc1cc(/C=C/C(=O)c2cccc(NS(=O)(=O)c3c(Cl)cccc3Cl)c2)ccc1O | 99.4
22 | 55.9 |  |  | COc1cc(/C=C/C(=O)c2cccc(NS(=O)(=O)c3cc(Cl)cc(Cl)c3)c2)ccc1O | 37.3
